# Test results published in publication PMC2699545 (Molecular genetics and metabolism, 2009).
# Changes are numbered by the printed parent chain.
# T1: E235G GCase (Homo sapiens, UniProt P04062, E274G)
# T1 sequence (P04062 40-536 E274G): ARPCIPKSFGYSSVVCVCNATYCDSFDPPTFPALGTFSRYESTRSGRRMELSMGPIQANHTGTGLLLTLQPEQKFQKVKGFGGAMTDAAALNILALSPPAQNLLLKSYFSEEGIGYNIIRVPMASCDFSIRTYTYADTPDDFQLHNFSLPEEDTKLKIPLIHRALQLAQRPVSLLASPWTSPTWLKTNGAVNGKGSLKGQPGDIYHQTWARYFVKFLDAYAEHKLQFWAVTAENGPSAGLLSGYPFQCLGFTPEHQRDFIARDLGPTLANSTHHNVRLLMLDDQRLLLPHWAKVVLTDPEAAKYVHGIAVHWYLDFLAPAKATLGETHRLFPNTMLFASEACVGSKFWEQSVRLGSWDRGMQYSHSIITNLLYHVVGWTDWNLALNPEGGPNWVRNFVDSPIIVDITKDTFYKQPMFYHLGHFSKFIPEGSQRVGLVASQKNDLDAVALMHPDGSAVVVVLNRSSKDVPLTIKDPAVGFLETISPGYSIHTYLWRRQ
# T2: N370 (wild-type) GCase (Homo sapiens, UniProt P04062)
# T2 sequence (P04062 40-536): T1 sequence (P04062 40-536 E274G) with G235E
# T3: N370D GCase (Homo sapiens, UniProt P04062, N409D)
# T3 sequence (P04062 40-536 N409D): T1 sequence (P04062 40-536 E274G) with G235E, N370D
# T4: N370S GCase (Homo sapiens, UniProt P04062, N409S)
# T4 sequence (P04062 40-536 N409S): T1 sequence (P04062 40-536 E274G) with G235E, N370S
# T5: N370E GCase (Homo sapiens, UniProt P04062, N409E)
# T5 sequence (P04062 40-536 N409E): T1 sequence (P04062 40-536 E274G) with G235E, N370E
# T6: N370Q GCase (Homo sapiens, UniProt P04062, N409Q)
# T6 sequence (P04062 40-536 N409Q): T1 sequence (P04062 40-536 E274G) with G235E, N370Q
# B1: saposin C: protein cofactor of GCase for optimal hydrolytic activity (protein, UniProt P07602 311-390, looked up)
# Saposin-C: SDVYCEVCEFLVKEVTKLIDNNKTEKEILDAFDKMCSKLPKSLSEECQEVVDTYGSSILSILLEEVSPELVCSMLHLCSG
# modifications: Saposin-C
# Assays:
# E235G GCase = molecular target: T1, E235G GCase; test: E235G hydrolysis of alternative substrates, with or without azide; assay type: biochemical; conditions: for E235G activity toward substrate compared to wild-type enzyme: TC (4.25 mM) as activator, no azide
# wild-type GCase = wild-type GCase (Homo sapiens, UniProt P04062); conditions: azide at 1:4 molar ratio enzyme to azide; DNPG
# Chain of wild-type GCase (P04062 40-536): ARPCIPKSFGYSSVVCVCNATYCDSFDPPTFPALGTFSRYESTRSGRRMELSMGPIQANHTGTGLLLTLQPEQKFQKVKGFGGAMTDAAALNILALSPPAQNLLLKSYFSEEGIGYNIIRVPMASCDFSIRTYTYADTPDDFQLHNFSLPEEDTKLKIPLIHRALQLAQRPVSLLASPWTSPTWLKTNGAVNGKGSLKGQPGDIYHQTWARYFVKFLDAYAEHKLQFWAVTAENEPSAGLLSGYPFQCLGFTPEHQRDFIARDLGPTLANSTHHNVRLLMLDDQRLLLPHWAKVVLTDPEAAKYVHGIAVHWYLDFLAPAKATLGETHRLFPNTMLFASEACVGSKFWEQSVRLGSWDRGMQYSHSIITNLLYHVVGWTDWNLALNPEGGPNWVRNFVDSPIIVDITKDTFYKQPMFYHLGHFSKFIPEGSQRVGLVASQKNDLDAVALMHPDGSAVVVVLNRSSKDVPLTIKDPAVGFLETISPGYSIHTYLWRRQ
# [1] = tested on: all active enzymes (wild-type and mutant GCases); test: Km for 4MU-Glc from Lineweaver-Burk plots; assay type: biochemical, human
# N370 (wild-type) GCase [2] = molecular target: T2, N370 (wild-type) GCase; test: GCase inhibition by active site-directed inhibitors, 4MU-Glc substrate; assay type: biochemical
# N370D GCase [3] = molecular target: T3, N370D GCase; test: as above; assay type: biochemical
# N370S GCase [4] = molecular target: T4, N370S GCase; test: as above; assay type: biochemical
# N370E GCase [5] = molecular target: T5, N370E GCase; test: as above; assay type: biochemical
# N370Q GCase [6] = molecular target: T6, N370Q GCase; test: as above; assay type: biochemical
# N370 (wild-type) GCase [7] = molecular target: T2, N370 (wild-type) GCase; test: Enzyme activation by TC or saposin C
# N370D GCase [8] = molecular target: T3, N370D GCase; test: Enzyme activation by TC or saposin C
# N370S GCase [9] = molecular target: T4, N370S GCase; test: Enzyme activation by TC or saposin C
# N370E GCase [10] = molecular target: T5, N370E GCase; test: Enzyme activation by TC or saposin C
# N370Q GCase [11] = molecular target: T6, N370Q GCase; test: Enzyme activation by TC or saposin C
# [12] = tested on: N370, N370D, N370E and N370S enzymes; test: Km for DNPG; assay type: biochemical, human; conditions: same for all the mutants (Fig. 4 legend)
# [13] = TC 0 to 8 mM, Triton X-100 4 mM, pH 5.6
# [14] = in combination with 0.5 μM BPS, pH 5.5
molecule,measurement,setting,value
"O=[N+]([O-])c1ccc(O[C@@H]2O[C@H](CO)[C@H](O)[C@H](O)[C@H]2O)cc1 [p-NPG, p-nitrophenyl-β-glucose]",E235G activity toward substrate compared to wild-type enzyme,E235G GCase,less than 0.05%
"[N-]=[N+]=[N-].[Na+] [azide, sodium azide]","hydrolytic rate of 2,4-DNP-β-glucose by E235G relative to wild-type",E235G GCase; 10 μM azide (Fig. 6A),95%
same,hydrolytic rate of DNPG by E235G relative to wild-type enzyme,E235G GCase; 1:4 molar ratio of enzyme to azide,~ 90%
same,effect of azide on wild-type enzyme activity,wild-type GCase,no effect
"Cc1cc(=O)oc2cc(O[C@@H]3O[C@H](CO)[C@@H](O)[C@H](O)[C@H]3O)ccc12 [4MU-Glc, 4-methylumbelliferyl-β-D-glucoside]",Km,[1],2000 ± 500 µM
same,E235G activity toward substrate compared to wild-type enzyme,E235G GCase,less than 0.05%
"O[C@H]1[C@H](O)[C@@H](O)[C@@H]2O[C@@H]2[C@@H]1O (racemic) [Conduritol B Epoxide, conduritol B epoxide]",IC50,N370 (wild-type) GCase [2],73 ± 3 µM
same,IC50,N370D GCase [3],72 ± 2 µM
same,IC50,N370S GCase [4],251 ± 29 µM
same,IC50,N370E GCase [5],78 ± 4 µM
same,IC50,N370Q GCase [6],75 ± 2.5 µM
"C[C@H](CCC(=O)NCCS(=O)(=O)O)[C@H]1CC[C@H]2[C@@H]3[C@H](O)C[C@@H]4C[C@H](O)CC[C@]4(C)[C@H]3C[C@H](O)[C@]12C [TC, Sodium taurocholate]",fold activation by TC,"N370 (wild-type) GCase [7]; wild-type, TC 0 to 8 mM, Triton X-100 4 mM, pH 5.6",~ 25 fold
same,fold activation by TC,N370D GCase [8]; [13],~ 22 fold
same,fold activation by TC,"N370S GCase [9]; TC ≥ 4 mM, Triton X-100 4 mM, pH 5.6",~ 35 fold
same,fold activation by TC,N370E GCase [10]; [13],~ 8 fold
same,fold activation by TC,N370Q GCase [11]; [13],~ 1.5 fold
"O=[N+]([O-])c1ccccc1O[C@@H]1O[C@H](CO)[C@H](O)[C@H](O)[C@H]1O [o-NPG, o-nitrophenyl-β-glucose]",E235G activity toward substrate compared to wild-type enzyme,E235G GCase,less than 0.05%
"O=[N+]([O-])c1ccc(O[C@@H]2O[C@H](CO)[C@@H](O)[C@H](O)[C@H]2O)c([N+](=O)[O-])c1 [DNPG, 2,4-dinitrophenyl-β-D-glucoside]",Km,[12],108 ± 17 µM
same,E235G activity toward substrate compared to wild-type enzyme,E235G GCase,~ 2%
B1,fold enhancement by saposin C,"N370 (wild-type) GCase [7]; N370 (WT), in combination with 0.5 μM BPS, pH 5.5",~ 3.5 fold
same,fold enhancement by saposin C,N370D GCase [8]; [14],1.8 fold
same,fold enhancement by saposin C,N370S GCase [9]; [14],~ 2.4 fold
same,fold enhancement by saposin C,N370E GCase [10]; [14],1.8 fold
same,enhancement by saposin C,N370Q GCase [11]; [14],no effect
